{"source": "patent US12344600B2", "about": "“c-Myc mRNA translation modulators and uses thereof in the treatment of cancer” (Anima Biotech Inc., priority 2022, dated 2025)"}
{"test_system": "c-Myc", "assay": "c-Myc immunofluorescence assay", "type": "cell-based, human", "settings": "A549 cells, 24 hours, anti-c-Myc immunofluorescence", "procedure,_shortened": "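Read-out is imaged c-Myc immunofluorescence, nucleus-segmented, in A549 lung carcinoma cells exposed to compound dose series for 24 h after 48 h growth. Fixation 4% paraformaldehyde, Triton permeabilization, antibody staining at room temperature; EC50 from logistic fit of signal versus concentration.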"}
{"smiles": "O=C(C1CCN(c2nc(-c3ccc(Cl)cc3)no2)CC1)N1CCOCC1", "note": "[Compound 166, (1-(3-(4-chlorophenyl)-1,2,4-oxadiazol-5-yl)piperidin-4-yl)(morpholino)methanone]", "Myc Efficacy (−LogEC50)": "+ (+ >3 and <5)"}
{"smiles": "COc1ccc(-c2noc(N3CCC(C(=O)NC(C)C4CCCCO4)CC3)n2)cc1", "note": "(centres unmarked) [Compound 313, 1-(3-(4-methoxyphenyl)-1,2,4-oxadiazol-5-yl)-N-(1-(tetrahydro-2H-pyran-2-yl)ethyl)piperidine-4-carboxamide]", "Myc Efficacy (−LogEC50)": "− (− ≤3)"}
{"smiles": "COc1ccc(-c2coc(N3CCC(C(=O)N4CCOCC4)CC3)n2)cc1", "note": "[Compound 203, (1-(4-(4-methoxyphenyl)oxazol-2-yl)piperidin-4-yl)(morpholino)methanone]", "Myc Efficacy (−LogEC50)": "+ (+ >3 and <5)"}
{"smiles": "COc1ccc(-c2noc(N3CCC(C(=O)NCC4CCN(C[C@@H]5CCCN(C)C5)C4)CC3)n2)cc1", "note": "(stereo partly drawn) [Compound 464, 1-(3-(4-methoxyphenyl)-1,2,4-oxadiazol-5-yl)-N-((1-(((R)-1-methylpiperidin-3-yl)methyl)pyrrolidin-3-yl)methyl)piperidine-4-carboxamide]", "Myc Efficacy (−LogEC50)": "+ (+ >3 and <5)"}
{"smiles": "COc1ccc(-c2noc(N3CCC(C(=O)NCC4CCN(Cc5ccc(C)cc5)C4)CC3)n2)cn1", "note": "(centres unmarked) [Compound 159, 1-(3-(6-methoxypyridin-3-yl)-1,2,4-oxadiazol-5-yl)-N-((1-(4-methylbenzyl)pyrrolidin-3-yl)methyl)piperidine-4-carboxamide]", "Myc Efficacy (−LogEC50)": "+ (+ >3 and <5)"}
{"smiles": "COc1ccc(-c2noc(N3CCNCC3)n2)cc1", "note": "[Compound 138, 3-(4-methoxyphenyl)-5-(piperazin-1-yl)-1,2,4-oxadiazole]", "Myc Efficacy (−LogEC50)": "+ (+ >3 and <5)"}
{"smiles": "O=C(C1CCN(c2nc(-c3ccc(O)cc3)no2)CC1)N1CCOCC1", "note": "[Compound 182, (1-(3-(4-hydroxyphenyl)-1,2,4-oxadiazol-5-yl)piperidin-4-yl)(morpholino)methanone]", "Myc Efficacy (−LogEC50)": "+ (+ >3 and <5)"}
{"smiles": "Cc1ccc(CN2CCC(CNC(=O)C3CCN(c4nc(-c5ccccc5Cl)no4)CC3)C2)cc1", "note": "(centres unmarked) [Compound 156, 1-(3-(2-chlorophenyl)-1,2,4-oxadiazol-5-yl)-N-((1-(4-methylbenzyl)pyrrolidin-3-yl)methyl)piperidine-4-carboxamide]", "Myc Efficacy (−LogEC50)": "+ (+ >3 and <5)"}
{"smiles": "COc1ccc(-c2noc(N3CCC(C(=O)NCCCN4CCC[C@@H](C)C4)CC3)n2)cc1", "note": "[Compound 142, (R)-1-(3-(4-methoxyphenyl)-1,2,4-oxadiazol-5-yl)-N-(3-(3-methylpiperidin-1-yl)propyl)piperidine-4-carboxamide]", "Myc Efficacy (−LogEC50)": "+ (+ >3 and <5)"}
{"smiles": "COc1ccc(-c2noc(N3CCC(C(=O)NCC4CCN(Cc5cccc(F)c5)C4)CC3)n2)cc1", "note": "(centres unmarked) [Compound 332, N-((1-(3-fluorobenzyl)pyrrolidin-3-yl)methyl)-1-(3-(4-methoxyphenyl)-1,2,4-oxadiazol-5-yl)piperidine-4-carboxamide]", "Myc Efficacy (−LogEC50)": "++ (++ ≥5 and <6)"}
{"smiles": "COc1ccc(-c2noc(N3CCC(C(=O)NCCCN4CCCCC4)CC3)n2)cc1", "note": "[Compound 101, 1-(3-(4-methoxyphenyl)-1,2,4-oxadiazol-5-yl)-N-(3-(piperidin-1-yl)propyl)piperidine-4-carboxamide]", "Myc Efficacy (−LogEC50)": "+ (+ >3 and <5)"}
{"smiles": "COc1ccc(-c2noc(N3CCC(C(=O)NCC4CCN(Cc5ccncc5C)C4)CC3)n2)cc1", "note": "(centres unmarked) [Compound 348, 1-(3-(4-methoxyphenyl)-1,2,4-oxadiazol-5-yl)-N-((1-((3-methylpyridin-4-yl)methyl)pyrrolidin-3-yl)methyl)piperidine-4-carboxamide]", "Myc Efficacy (−LogEC50)": "++ (++ ≥5 and <6)"}
{"smiles": "COc1ccc(-c2noc(N3CCN(C(=O)N4CCN(C(C)=O)CC4)CC3)n2)cc1", "note": "[Compound 225, 1-(4-(4-(3-(4-methoxyphenyl)-1,2,4-oxadiazol-5-yl)piperazine-1-carbonyl)piperazin-1-yl)ethan-1-one]", "Myc Efficacy (−LogEC50)": "− (− ≤3)"}
{"smiles": "COc1ccc(-c2noc(N3CCC(C(=O)NCC4CCN(CC5CCC5)C4)CC3)n2)cc1", "note": "(centres unmarked) [Compound 336, N-((1-(cyclobutylmethyl)pyrrolidin-3-yl)methyl)-1-(3-(4-methoxyphenyl)-1,2,4-oxadiazol-5-yl)piperidine-4-carboxamide]", "Myc Efficacy (−LogEC50)": "++ (++ ≥5 and <6)"}
{"smiles": "COc1ccc(-c2noc(N3CCC(C(=O)NCCc4c[nH]c5cc(C)ccc45)CC3)n2)cc1", "note": "[Compound 317, 1-(3-(4-methoxyphenyl)-1,2,4-oxadiazol-5-yl)-N-(2-(6-methyl-1H-indol-3-yl)ethyl)piperidine-4-carboxamide]", "Myc Efficacy (−LogEC50)": "++ (++ ≥5 and <6)"}
{"smiles": "COc1ccc(-c2noc(N3CCC(C(=O)NCC4CCN(Cc5cnsc5)C4)CC3)n2)cc1", "note": "(centres unmarked) [Compound 373, N-((1-(isothiazol-4-ylmethyl)pyrrolidin-3-yl)methyl)-1-(3-(4-methoxyphenyl)-1,2,4-oxadiazol-5-yl)piperidine-4-carboxamide]", "Myc Efficacy (−LogEC50)": "++ (++ ≥5 and <6)"}
{"smiles": "COc1ccc(-c2noc(N3CCC(C(=O)NCC4CCN(CC5CCCCO5)C4)CC3)n2)cc1", "note": "(centres unmarked) [Compound 361, 1-(3-(4-methoxyphenyl)-1,2,4-oxadiazol-5-yl)-N-((1-((tetrahydro-2H-pyran-2-yl)methyl)pyrrolidin-3-yl)methyl)piperidine-4-carboxamide]", "Myc Efficacy (−LogEC50)": "++ (++ ≥5 and <6)"}
{"smiles": "COc1ccc(-c2noc(N3CCC(C(=O)NC[C@H]4CCN(C[C@H]5CCCN(C)C5)C4)CC3)n2)cc1", "note": "[Compound 465, 1-(3-(4-methoxyphenyl)-1,2,4-oxadiazol-5-yl)-N-(((R)-1-(((S)-1-methylpiperidin-3-yl)methyl)pyrrolidin-3-yl)methyl)piperidine-4-carboxamide]", "Myc Efficacy (−LogEC50)": "+ (+ >3 and <5)"}
{"smiles": "COc1ccc(-c2noc(N3CCC(C(=O)NCC4CCN(Cc5cccc(C)c5)C4)CC3)n2)cc1", "note": "(centres unmarked) [Compound 349, 1-(3-(4-methoxyphenyl)-1,2,4-oxadiazol-5-yl)-N-((1-(3-methylbenzyl)pyrrolidin-3-yl)methyl)piperidine-4-carboxamide]", "Myc Efficacy (−LogEC50)": "++ (++ ≥5 and <6)"}
{"smiles": "COc1cnc(-c2noc(N3CCC(C(=O)NCC4CCN(Cc5ccc(C)cc5)C4)CC3)n2)nc1", "note": "(centres unmarked) [Compound 247, 1-(3-(5-methoxypyrimidin-2-yl)-1,2,4-oxadiazol-5-yl)-N-((1-(4-methylbenzyl)pyrrolidin-3-yl)methyl)piperidine-4-carboxamide]", "Myc Efficacy (−LogEC50)": "+ (+ >3 and <5)"}
{"smiles": "COc1ccc(-c2noc(N3CCC(C(=O)NCc4cc5cccnc5[nH]4)CC3)n2)cc1", "note": "[Compound 418, N-((1H-pyrrolo[2,3-b]pyridin-2-yl)methyl)-1-(3-(4-methoxyphenyl)-1,2,4-oxadiazol-5-yl)piperidine-4-carboxamide]", "Myc Efficacy (−LogEC50)": "+ (+ >3 and <5)"}
{"smiles": "COc1ccc(-c2noc(N3CCC(C(=O)NCC4CCN(Cc5ccns5)C4)CC3)n2)cc1", "note": "(centres unmarked) [Compound 352, N-((1-(isothiazol-5-ylmethyl)pyrrolidin-3-yl)methyl)-1-(3-(4-methoxyphenyl)-1,2,4-oxadiazol-5-yl)piperidine-4-carboxamide]", "Myc Efficacy (−LogEC50)": "++ (++ ≥5 and <6)"}
{"smiles": "COc1ccc(-c2noc(N3CCC(C(=O)N4CCC(C)CC4)CC3)n2)cc1", "note": "[Compound 110, (1-(3-(4-methoxyphenyl)-1,2,4-oxadiazol-5-yl)piperidin-4-yl)(4-methylpiperidin-1-yl)methanone]", "Myc Efficacy (−LogEC50)": "+ (+ >3 and <5)"}
{"smiles": "COc1ccc(-c2noc(N3CCC(C(=O)NCC4CCN(Cc5ncc(C)s5)C4)CC3)n2)cc1", "note": "(centres unmarked) [Compound 407, 1-(3-(4-methoxyphenyl)-1,2,4-oxadiazol-5-yl)-N-((1-((5-methylthiazol-2-yl)methyl)pyrrolidin-3-yl)methyl)piperidine-4-carboxamide]", "Myc Efficacy (−LogEC50)": "++ (++ ≥5 and <6)"}
{"smiles": "CCCN1CCC(NC(=O)C2CCN(c3nc(-c4ccc(OC)cc4)no3)CC2)CC1", "note": "[Compound 251, 1-(3-(4-methoxyphenyl)-1,2,4-oxadiazol-5-yl)-N-(1-propylpiperidin-4-yl)piperidine-4-carboxamide]", "Myc Efficacy (−LogEC50)": "− (− ≤3)"}
{"smiles": "COc1ccc(-c2noc(N3CCC(C(=O)NCC4CCN(C[C@H]5CCN5)C4)CC3)n2)cc1", "note": "(stereo partly drawn) [Compound 413, N-((1-(((R)-azetidin-2-yl)methyl)pyrrolidin-3-yl)methyl)-1-(3-(4-methoxyphenyl)-1,2,4-oxadiazol-5-yl)piperidine-4-carboxamide]", "Myc Efficacy (−LogEC50)": "− (− ≤3)"}
{"smiles": "COc1ccc(-c2noc(N3CCC(C(=O)NCCCN4CCN(C)CC4)CC3)n2)cc1", "note": "[Compound 117, 1-(3-(4-methoxyphenyl)-1,2,4-oxadiazol-5-yl)-N-(3-(4-methylpiperazin-1-yl)propyl)piperidine-4-carboxamide]", "Myc Efficacy (−LogEC50)": "+ (+ >3 and <5)"}
{"smiles": "COc1ccc(-c2noc(N3CCC(C(=O)NCC4CCN(C5COC5)C4)CC3)n2)cc1", "note": "(centres unmarked) [Compound 401, 1-(3-(4-methoxyphenyl)-1,2,4-oxadiazol-5-yl)-N-((1-(oxetan-3-yl)pyrrolidin-3-yl)methyl)piperidine-4-carboxamide]", "Myc Efficacy (−LogEC50)": "+ (+ >3 and <5)"}
{"smiles": "COc1ccc(-c2noc(N3CCC(C(=O)NCC4CCN(CC5(C)COC5)C4)CC3)n2)cc1", "note": "(centres unmarked) [Compound 371, 1-(3-(4-methoxyphenyl)-1,2,4-oxadiazol-5-yl)-N-((1-((3-methyloxetan-3-yl)methyl)pyrrolidin-3-yl)methyl)piperidine-4-carboxamide]", "Myc Efficacy (−LogEC50)": "+ (+ >3 and <5)"}
{"smiles": "COc1ccc(-c2noc(N3CCN(C(=O)Nc4cccc(Cl)c4)CC3)n2)cc1", "note": "[Compound 194, N-(3-chlorophenyl)-4-(3-(4-methoxyphenyl)-1,2,4-oxadiazol-5-yl)piperazine-1-carboxamide]", "Myc Efficacy (−LogEC50)": "+ (+ >3 and <5)"}
{"smiles": "COc1ccc(-c2noc(N3CCC(C(=O)NCC4CCN(CCF)C4)CC3)n2)cc1", "note": "(centres unmarked) [Compound 366, N-((1-(2-fluoroethyl)pyrrolidin-3-yl)methyl)-1-(3-(4-methoxyphenyl)-1,2,4-oxadiazol-5-yl)piperidine-4-carboxamide]", "Myc Efficacy (−LogEC50)": "+ (+ >3 and <5)"}
{"smiles": "COc1ccc(-c2noc(N3CCC(C(=O)NC4COc5ccccc54)CC3)n2)cc1", "note": "(centres unmarked) [Compound 283, N-(2,3-dihydrobenzofuran-3-yl)-1-(3-(4-methoxyphenyl)-1,2,4-oxadiazol-5-yl)piperidine-4-carboxamide]", "Myc Efficacy (−LogEC50)": "+ (+ >3 and <5)"}
